Test results reported in patent publication US7655447B2, “ZSIG33-like polynucleotides” (ZymoGenetics, Inc., priority 2000, dated 2010).

Tested on: antral portion of the stomach
Assay: Gastric contractility: distance between transducing crystals on the antral stomach
Format: in vivo, Sprague-Dawley rats
Conditions: urethane-anesthetized rats
Excerpt: Two male Sprague-Dawley rats, approximately 12 weeks old (Harlan, Indianapolis, Ind.) are anesthetized with urethane and their stomachs are exposed through a small abdominal incision. Two 2.4 mm transducing crystals (Sonometrics, Ontario, Canada) are placed on the antral portion of the stomach such that circular contractions could be monitored as a change in the distance between the two crystals. The crystals are attached with VETBOND TISSUE ADHESIVE (3M, St. Paul, Minn.). […] The amplitude of the NE-induced decrease is approximately 50% of the acetylcholine-induced increase in distance. Both responses are transient. A negative control of 10 μl of phosphate buffer solution (PBS) applied topically between the crystals has no effect. […] The ZS33LP at 1 μg induces a sustained, rhythmic increase and decrease in crystal distance.

NC[C@H](O)c1ccc(O)c(O)c1 [norepinephrine]
change in the distance between the two crystals (circular contractions) (10 μl of 1 μM applied topically to the stomach between the crystals): reduction in the distance between the two crystals
amplitude of the NE-induced decrease relative to the acetylcholine-induced increase in distance (10 μl of 1 μM applied topically): approximately 50%
